Data as given in ChEMBL document CHEMBL1152937, “Carbonic anhydrase inhibitors. Inhibition and homology modeling studies of the fungal beta-carbonic anhydrase from Candida albicans with sulfonamides” (Bioorg Med Chem, 2009).

target: T1, Carbonic anhydrase (Candida albicans (strain SC5314 / ATCC MYA-2876) (Yeast), UniProt Q5AJ71)
T1 sequence (Q5AJ71 whole entry): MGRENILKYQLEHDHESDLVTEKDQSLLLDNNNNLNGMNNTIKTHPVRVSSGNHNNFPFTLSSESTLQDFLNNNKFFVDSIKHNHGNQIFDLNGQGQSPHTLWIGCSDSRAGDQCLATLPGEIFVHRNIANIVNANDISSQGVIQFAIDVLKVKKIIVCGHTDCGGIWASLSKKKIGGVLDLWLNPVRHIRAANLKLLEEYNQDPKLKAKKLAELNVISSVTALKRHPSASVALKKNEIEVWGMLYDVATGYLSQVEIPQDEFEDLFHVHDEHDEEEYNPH

Nc1ccc(S(=O)(=O)NCc2ccc(S(N)(=O)=O)cc2)cc1 was tested. Which Ki did it give?
The Ki was 1310 nM.

Nc1cc(Cl)c(S(N)(=O)=O)cc1S(N)(=O)=O was tested. Which Ki did it give?
The Ki was 874 nM.

For Nc1ccc(S(=O)(=O)Nc2nnc(S(N)(=O)=O)s2)cc1, which Ki is on record?
The Ki was 1090 nM.

With NS(=O)(=O)c1nnc(-c2ccccc2Cl)s1 as the compound, how does the Ki read?
Its Ki is 1290 nM.

Which Ki does the source give for Nc1nccc(Nc2ccc(S(N)(=O)=O)cc2)n1 here?
The Ki was 1110 nM.

With Nc1ccc(S(N)(=O)=O)cc1Br as the compound, how does the Ki read?
Its Ki is 408 nM.

Which Ki does the source give for Cn1nc(S(N)(=O)=O)sc1=N here?
Its Ki is 1370 nM.

With NS(=O)(=O)c1ccc(CCO)cc1 as the compound, how does the Ki read?
The Ki was 1210 nM.

For Nc1ccc(S(N)(=O)=O)cc1F, which Ki is on record?
Its Ki is 1240 nM.

With NS(=O)(=O)c1ccc(CO)cc1 as the compound, how does the Ki read?
Its Ki is 383 nM.

For NCCc1ccc(S(N)(=O)=O)cc1, which Ki is on record?
The Ki was 3200 nM.

Which Ki does the source give for Nc1ccc(S(N)(=O)=O)cc1Cl here?
The Ki was 1340 nM.

Which Ki does the source give for Nc1ccc(S(=O)(=O)NCCc2ccc(S(N)(=O)=O)cc2)cc1 here?
Its Ki is 727 nM.

For Nc1cc(C(F)(F)F)c(S(N)(=O)=O)cc1S(N)(=O)=O [2,4-DISULFAMYLTRIFLUOROMETHYLANILINE], which Ki is on record?
The Ki was 6110 nM.

With NS(=O)(=O)c1nnc(NS(=O)(=O)c2ccccc2)s1 [BENZOLAMIDE] as the compound, how does the Ki read?
The Ki was 1510 nM.

For CCN[C@H]1CN(CCCOC)S(=O)(=O)c2sc(S(N)(=O)=O)cc21 [BRINZOLAMIDE], which Ki is on record?
Its Ki is 1100 nM.

With NS(=O)(=O)c1ccc(C(=O)O)cc1 [CARZENIDE] as the compound, how does the Ki read?
Its Ki is 861 nM.

With Cc1ccc(-c2cc(C(F)(F)F)nn2-c2ccc(S(N)(=O)=O)cc2)cc1 [CELECOXIB] as the compound, how does the Ki read?
The Ki was 1020 nM.

Which Ki does the source give for NCc1ccc(S(N)(=O)=O)cc1 [MAFENIDE] here?
Its Ki is 1110 nM.

With O=C1NS(=O)(=O)c2ccccc21 [SACCHARIN] as the compound, how does the Ki read?
The Ki was 736 nM.

How did the Ki turn out when Nc1ccc(S(N)(=O)=O)cc1 [SULFANILAMIDE] was run?
Its Ki is 7630 nM.

CC1(C)O[C@@H]2[C@@H](CO[C@@]3(COS(N)(=O)=O)OC(C)(C)O[C@@H]23)O1 [TOPIRAMATE] was tested. Which Ki did it give?
Its Ki is 1110 nM.
